Assay results taken from EP3002287B1, “Thiochromeno[2,3-c]quinolin-12-one derivatives and their use as topoisomerase inhibitors” (National Defense Medical Center, priority 2014, dated 2016).

Legend:
[1] = test system: HOP-92; experiment: NCI in vitro 60-cell drug screen (SRB assay); format: cell-based; conditions: HOP-92 (Non-small cell lung cancer); 10^-5 molar concentration; 48 hours
[2] = test system: OVCAR-3; experiment: NCI in vitro 60-cell drug screen (SRB assay); format: cell-based; conditions: OVCAR-3 (Ovarian cancer); 10^-5 molar concentration; 48 hours
[3] = test system: HT29; experiment: NCI in vitro 60-cell drug screen (SRB assay); format: cell-based; conditions: HT29 (Colon cancer); 10^-5 molar concentration; 48 hours
[4] = test system: U251; experiment: NCI in vitro 60-cell drug screen (SRB assay); format: cell-based; conditions: U251 (CNS cancer); 10^-5 molar concentration; 48 hours
[5] = test system: NCI-H322M; experiment: NCI in vitro 60-cell drug screen (SRB assay); format: cell-based; conditions: NCI-H322M (Non-small cell lung cancer); 10^-5 molar concentration; 48 hours
[6] = test system: HL-60(TB); experiment: NCI in vitro 60-cell drug screen (SRB assay); format: cell-based; conditions: HL-60(TB) (Leukemia); 10^-5 molar concentration; 48 hours
[7] = test system: T-47D; experiment: NCI in vitro 60-cell drug screen (SRB assay); format: cell-based; conditions: T-47D (Breast cancer); 10^-5 molar concentration; 48 hours
[8] = test system: SNB-19; experiment: NCI in vitro 60-cell drug screen (SRB assay); format: cell-based; conditions: SNB-19 (CNS cancer); 10^-5 molar concentration; 48 hours
[9] = test system: COLO 205; experiment: NCI in vitro 60-cell drug screen (SRB assay); format: cell-based; conditions: COLO 205 (Colon cancer); 10^-5 molar concentration; 48 hours
[10] = test system: RXF 393; experiment: NCI in vitro 60-cell drug screen (SRB assay); format: cell-based; conditions: RXF 393 (Renal cancer); 10^-5 molar concentration; 48 hours
[11] = test system: RPMI-8226; experiment: NCI in vitro 60-cell drug screen (SRB assay); format: cell-based; conditions: RPMI-8226 (Leukemia); 10^-5 molar concentration; 48 hours
[12] = test system: HOP-62; experiment: NCI in vitro 60-cell drug screen (SRB assay); format: cell-based; conditions: HOP-62 (Non-small cell lung cancer); 10^-5 molar concentration; 48 hours
[13] = test system: TK-10; experiment: NCI in vitro 60-cell drug screen (SRB assay); format: cell-based; conditions: TK-10 (Renal cancer); 10^-5 molar concentration; 48 hours
[14] = test system: DU-145; experiment: NCI in vitro 60-cell drug screen (SRB assay); format: cell-based; conditions: DU-145 (Prostate cancer); 10^-5 molar concentration; 48 hours
[15] = test system: K-562; experiment: NCI in vitro 60-cell drug screen (SRB assay); format: cell-based; conditions: K-562 (Leukemia); 10^-5 molar concentration; 48 hours
[16] = test system: SNB-75; experiment: NCI in vitro 60-cell drug screen (SRB assay); format: cell-based; conditions: SNB-75 (CNS cancer); 10^-5 molar concentration; 48 hours
[17] = test system: NCI-H522; experiment: NCI in vitro 60-cell drug screen (SRB assay); format: cell-based; conditions: NCI-H522 (Non-small cell lung cancer); 10^-5 molar concentration; 48 hours
[18] = test system: IGROV1; experiment: NCI in vitro 60-cell drug screen (SRB assay); format: cell-based; conditions: IGROV1 (Ovarian cancer); 10^-5 molar concentration; 48 hours
[19] = test system: HCC-2998; experiment: NCI in vitro 60-cell drug screen (SRB assay); format: cell-based; conditions: HCC-2998 (Colon cancer); 10^-5 molar concentration; 48 hours
[20] = test system: SK-MEL-5; experiment: NCI in vitro 60-cell drug screen (SRB assay); format: cell-based; conditions: SK-MEL-5 (Melanoma); 10^-5 molar concentration; 48 hours
[21] = test system: OVCAR-8; experiment: NCI in vitro 60-cell drug screen (SRB assay); format: cell-based; conditions: OVCAR-8 (Ovarian cancer); 10^-5 molar concentration; 48 hours
[22] = test system: SF-539; experiment: NCI in vitro 60-cell drug screen (SRB assay); format: cell-based; conditions: SF-539 (CNS cancer); 10^-5 molar concentration; 48 hours
[23] = test system: LOX IMVI; experiment: NCI in vitro 60-cell drug screen (SRB assay); format: cell-based; conditions: LOX IMVI (Melanoma); 10^-5 molar concentration; 48 hours
[24] = test system: NCI-H460; experiment: NCI in vitro 60-cell drug screen (SRB assay); format: cell-based; conditions: NCI-H460 (Non-small cell lung cancer); 10^-5 molar concentration; 48 hours
[25] = test system: SN12C; experiment: NCI in vitro 60-cell drug screen (SRB assay); format: cell-based; conditions: SN12C (Renal cancer); 10^-5 molar concentration; 48 hours
[26] = test system: HCT-15; experiment: NCI in vitro 60-cell drug screen (SRB assay); format: cell-based; conditions: HCT-15 (Colon cancer); 10^-5 molar concentration; 48 hours
[27] = test system: BT-549; experiment: NCI in vitro 60-cell drug screen (SRB assay); format: cell-based; conditions: BT-549 (Breast cancer); 10^-5 molar concentration; 48 hours
[28] = test system: EKVX; experiment: NCI in vitro 60-cell drug screen (SRB assay); format: cell-based; conditions: EKVX (Non-small cell lung cancer); 10^-5 molar concentration; 48 hours
[29] = test system: MALME-3M; experiment: NCI in vitro 60-cell drug screen (SRB assay); format: cell-based; conditions: MALME-3M (Melanoma); 10^-5 molar concentration; 48 hours
[30] = test system: 60 cell lines; experiment: NCI in vitro 60-cell drug screen (SRB assay), whole panel statistics; conditions: mean over the cell panel; 10^-5 molar concentration; 48 hours
[31] = test system: NCI/ADR-RES; experiment: NCI in vitro 60-cell drug screen (SRB assay); format: cell-based; conditions: NCI/ADR-RES (Ovarian cancer); 10^-5 molar concentration; 48 hours
[32] = test system: ACHN; experiment: NCI in vitro 60-cell drug screen (SRB assay); format: cell-based; conditions: ACHN (Renal cancer); 10^-5 molar concentration; 48 hours
[33] = test system: OVCAR-5; experiment: NCI in vitro 60-cell drug screen (SRB assay); format: cell-based; conditions: OVCAR-5 (Ovarian cancer); 10^-5 molar concentration; 48 hours
[34] = test system: SK-OV-3; experiment: NCI in vitro 60-cell drug screen (SRB assay); format: cell-based; conditions: SK-OV-3 (Ovarian cancer); 10^-5 molar concentration; 48 hours

| Compound | Growth percent [1] [%] | Growth percent [2] [%] | Growth percent [3] [%] | Growth percent [4] [%] | Growth percent [5] [%] | Growth percent [6] [%] | Growth percent [7] [%] | Growth percent [8] [%] | Growth percent [9] [%] | Growth percent [10] [%] | Growth percent [11] [%] | Growth percent [12] [%] | Growth percent [13] [%] | Growth percent [14] [%] | Growth percent [15] [%] | Growth percent [16] [%] | Growth percent [17] [%] | Growth percent [18] [%] | Growth percent [19] [%] | Growth percent [20] [%] | also measured |
| --- | --- | --- | --- | --- | --- | --- | --- | --- | --- | --- | --- | --- | --- | --- | --- | --- | --- | --- | --- | --- | --- |
| O=C(O)c1c(Sc2ccc(Cl)cc2)c(O)nc2ccccc12 [Compound 2, 3-((4-Chlorophenyl)thio)-2-hydroxyquinoline-4-carboxylic acid] | 72.97 | 121.29 | 101.41 | 99.59 | 101.10 | 105.63 | 99.59 | 97.17 | 108.65 | 113.90 | 98.10 | 116.47 | 118.09 | 115.22 | 112.29 | 82.18 | 81.64 | 103.57 | 100.97 | 98.07 | Growth percent [21]: 114.68%; Growth percent [22]: 110.22%; Growth percent [23]: 90.46%; Growth percent [24]: 104.20%; Growth percent [25]: 95.83%; Growth percent [26]: 107.80%; Growth percent [27]: 124.20%; Growth percent [28]: 89.47%; Growth percent [29]: 107.05%; Growth percent, Mean [30]: 102.11%; Growth percent [31]: 97.75%; Growth percent [32]: 113.47%; Growth percent [33]: 112.47% |
| CN(C)c1nc2ccccc2c2c(=O)c3cc(Cl)ccc3sc12 [Compound 6, 10-Chloro-6-dimethylamino-12H-thiochromeno[2,3-c]quinolin-12-one] | 58.65 | 79.65 | 87.73 | 93.55 | 83.74 | 107.16 | 37.66 | 76.46 | 89.67 | 83.17 | 98.20 | 43.62 | 64.75 | 92.93 | 99.71 | 15.29 | 70.42 | 68.16 | 97.20 | 97.92 | Growth percent [34]: 41.57%; Growth percent [21]: 68.53%; Growth percent [22]: 72.72%; Growth percent [23]: 86.53%; Growth percent [24]: 88.86%; Growth percent [25]: 99.49%; Growth percent [26]: 89.27%; Growth percent [27]: 92.96%; Growth percent [29]: 89.70%; Growth percent, Mean [30]: 80.59%; Growth percent [31]: 87.86%; Growth percent [32]: 64.81%; Growth percent [33]: 98.05% |
| O=c1c2cc(Cl)ccc2sc2c(N3CCN(c4ccccc4)CC3)nc3ccccc3c12 [Compound 12, 10-Chloro-6-(4-phenylpiperazin-1-yl)-12H-thiochromeno[2,3-c] quinolin-12-one] | 81.27 | 109.63 | 99.94 | 96.09 | 84.41 | 113.79 | 104.57 | 105.57 | 111.67 | 107.68 | 99.93 | 86.00 | 112.45 | 111.15 | 112.37 | 94.73 | 93.50 | 91.38 | 105.23 | 103.57 | Growth percent [34]: 100.39%; Growth percent [21]: 90.34%; Growth percent [22]: 100.06%; Growth percent [23]: 95.15%; Growth percent [24]: 103.24%; Growth percent [25]: 102.66%; Growth percent [26]: 99.81%; Growth percent [27]: 123.95%; Growth percent [29]: 121.84%; Growth percent, Mean [30]: 99.30%; Growth percent [31]: 100.81%; Growth percent [32]: 94.99%; Growth percent [33]: 108.10% |
| COc1nc2ccccc2c2c(=O)c3cc(Cl)ccc3sc12 [Compound 5, 10-Chloro-6-methoxy-12H-thiochromeno[2,3-c]quinolin-12-one] | 80.11 | 96.60 | 102.69 | 99.18 | 90.77 | 89.47 | 68.46 | 89.36 | 97.94 | 109.68 | 102.86 | 69.64 | 113.30 | 104.27 | 95.83 | 52.28 | 92.71 | 71.44 | 104.67 | 99.74 | Growth percent [34]: 58.94%; Growth percent [21]: 91.82%; Growth percent [22]: 86.13%; Growth percent [23]: 91.21%; Growth percent [24]: 101.23%; Growth percent [25]: 98.74%; Growth percent [26]: 107.99%; Growth percent [27]: 94.85%; Growth percent [29]: 94.19%; Growth percent, Mean [30]: 92.10%; Growth percent [31]: 96.10%; Growth percent [32]: 74.89%; Growth percent [33]: 106.70% |
| O=c1c2ccc(Cl)cc2sc2c(Cl)nc3ccccc3c12 [Compound 3, 6,9-Dichloro-12H-thiochromeno[2,3-c]quinolin-12-one] | 90.83 | 111.27 | 99.73 | 101.71 | 100.12 | 99.34 | 110.10 | 107.89 | 112.15 | 102.55 | 100.19 | 82.02 | 108.56 | 114.27 | 101.04 | 77.88 | 96.81 | 96.06 | 123.28 | 97.42 | Growth percent [34]: 101.32%; Growth percent [21]: 101.62%; Growth percent [22]: 89.02%; Growth percent [23]: 90.53%; Growth percent [24]: 103.14%; Growth percent [25]: 95.92%; Growth percent [26]: 102.28%; Growth percent [27]: 110.01%; Growth percent [29]: 95.87%; Growth percent, Mean [30]: 98.11%; Growth percent [31]: 102.80%; Growth percent [32]: 86.84%; Growth percent [33]: 100.07% |
